SMILES strings stand for the structures.

What all share (assay type): biochemical
The target in one assay is T1, TYK2 (Homo sapiens, UniProt P29597).
T1 construct: JAK1 (aa 850-1154) and TYK2 (aa 871-1187) are expressed with an N-terminally fused GST-tag; GST (N); purchased Carna Biosciences, Inc; host or cells: baculovirus expression system
T1 sequence (P29597 871-1187): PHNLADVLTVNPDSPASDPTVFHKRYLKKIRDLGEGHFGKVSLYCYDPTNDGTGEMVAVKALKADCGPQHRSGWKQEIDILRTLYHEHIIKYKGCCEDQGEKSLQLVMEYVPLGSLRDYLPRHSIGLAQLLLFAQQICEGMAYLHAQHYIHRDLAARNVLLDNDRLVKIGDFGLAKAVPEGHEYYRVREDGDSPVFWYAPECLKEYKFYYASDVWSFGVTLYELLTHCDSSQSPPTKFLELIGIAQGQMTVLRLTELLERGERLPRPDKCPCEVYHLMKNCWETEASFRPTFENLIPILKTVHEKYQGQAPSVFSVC
The assay can be described thus: TYK2 kinase assay (HTRF, inhibition of phosphorylation of a synthetic peptide). Conditions: catalytic domain aa 871-1187, GST-tag; 13 μM ATP (Km); read-out: TYK2 kinase inhibitory activity (EC50). As for the experimental part: JAK1, JAK2, JAK3 and TYK2 Kinase Assays:
Human baculovirus-expressed JAK1, 2, 3 and TYK2 were purchased from Carna Biosciences, Inc. All four purified enzymes contain only the catalytic domain. JAK1 (aa 850-1154) and TYK2 (aa 871-1187) are expressed with an N-terminally fused GST-tag, and JAK2 and JAK3 with an N-terminally fused His-tag. Inhibition of phosphorylation of a synthetic peptide was measured in an HTRF-based assay using the TK substrate-Biotin from the CisbioHTRFKinEASE TK kit. First, 2 μl of TK solution (TK substrate-biotin in kinase buffer [1× enzymatic buffer from HTRFKinEASE TK kit, 1 mM DTT]) is added to a plate containing 1 μl prediluted compound (final assay concentration DMSO: 0.75%). Then, 5 μl kinase-ATP mix (prepared in kinase buffer) is added to the wells and the plates are incubated at RT for 20-30 min. For all four kinases a concentration of ATP that corresponded to the Km for ATP was used. The final concentrations of buffers, substrate, kinase and ATP were: JAK1: 50 mMHepes buffer pH 7.0, 0.01% BSA, 10 mM MgCl2, 1 mM DTT, 7 μM ATP, 50 nMSEB, 1 μM TK Substrate-Biotin and 5 ng JAK1; JAK2: 50 mM Hepes buffer pH 7.0, 0.01% BSA, 5 mM MgCl2, 1 mM DTT, 4 μM ATP, 1 μM TK Substrate-Biotin and 0.1 ng JAK2; JAK3: 50 mMHepes buffer pH 7.0, 0.01% BSA, 5 mM MgCl2, 1 mM DTT, 2 μM ATP, 1 μM TK Substrate-Biotin and 0.3 ng JAK3; TYK2: 50 mMHepes buffer pH 7.0, 0.01% BSA, 5 mM MgCl2, 1 mM DTT, 13 μM ATP, 50 nMSEB, 1 μM TK Substrate-Biotin and 0.8 ng TYK2. Thereafter, the kinase reaction is stopped by adding 4 μl detection mix (final concentrations: 50 mM Hepes buffer pH 7.0, 0.01% BSA, 0.8 M KF, 20 mM EDTA, 42 nM Streptavidin-XL665 and 1:400 STKAbCryptate) and the plates are incubated overnight in the dark. The HTRF signal is read using an Envision plate reader.

In a further assay the target is T2, JAK1 (Homo sapiens, UniProt P23458).
T2 construct: JAK1 (aa 850-1154) and TYK2 (aa 871-1187) are expressed with an N-terminally fused GST-tag; GST (N); purchased Carna Biosciences, Inc; host or cells: baculovirus expression system
T2 sequence (P23458 850-1154): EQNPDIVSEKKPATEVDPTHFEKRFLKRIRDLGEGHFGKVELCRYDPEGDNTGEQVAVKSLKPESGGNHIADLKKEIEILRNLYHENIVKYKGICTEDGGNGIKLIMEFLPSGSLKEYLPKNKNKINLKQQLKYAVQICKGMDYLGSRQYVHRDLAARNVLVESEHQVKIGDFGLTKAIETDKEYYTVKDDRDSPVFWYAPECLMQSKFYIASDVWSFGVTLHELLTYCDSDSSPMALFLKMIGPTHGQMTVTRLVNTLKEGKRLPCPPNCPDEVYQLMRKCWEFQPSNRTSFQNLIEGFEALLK
The experiment in a line: JAK1 kinase assay (HTRF, inhibition of phosphorylation of a synthetic peptide). Conditions: catalytic domain aa 850-1154, GST-tag; 7 μM ATP (Km); read-out: JAK1 kinase inhibitory activity (EC50). In a few lines:
(§1)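 Baculovirus-expressed catalytic domains (GST-JAK1 aa 850-1154, GST-TYK2 aa 871-1187, His-JAK2, His-JAK3) phosphorylate 1 μM biotin-TK peptide 20-30 min at RT in 50 mM Hepes pH 7.0 with ATP at Km: JAK1 7 μM, JAK2 4 μM, JAK3 2 μM, TYK2 13 μM; 0.75% DMSO. Stopped with EDTA, HTRF read overnight.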

The target of the next assay is T3, JAK2 (Homo sapiens, UniProt O60674).
T3 construct: All four purified enzymes contain only the catalytic domain; His (N); purchased Carna Biosciences, Inc; host or cells: baculovirus expression system
T3 sequence (O60674 849-1124 limits assumed): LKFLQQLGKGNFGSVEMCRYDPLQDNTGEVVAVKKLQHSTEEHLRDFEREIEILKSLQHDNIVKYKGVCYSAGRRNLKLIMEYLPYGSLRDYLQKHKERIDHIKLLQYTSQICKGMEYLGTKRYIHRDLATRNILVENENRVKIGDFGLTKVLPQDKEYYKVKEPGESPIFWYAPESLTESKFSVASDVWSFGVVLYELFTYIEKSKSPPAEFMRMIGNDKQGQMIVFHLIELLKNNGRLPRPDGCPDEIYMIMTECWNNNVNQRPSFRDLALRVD
The assay can be described thus: JAK2 kinase assay (HTRF, inhibition of phosphorylation of a synthetic peptide). Conditions: catalytic domain, His-tag; 4 μM ATP (Km); read-out: JAK2 kinase inhibitory activity (EC50). In a few lines: as §1
Background: In TR-FRET formats the signal depends on donor and acceptor labels being close together.

The next assay concerns the target T4, JAK3 (Homo sapiens, UniProt P52333).
T4 construct: All four purified enzymes contain only the catalytic domain; His (N); purchased Carna Biosciences, Inc; host or cells: baculovirus expression system
The assay can be described thus: JAK3 kinase assay (HTRF, inhibition of phosphorylation of a synthetic peptide). Conditions: catalytic domain, His-tag; 2 μM ATP (Km); read-out: JAK3 kinase inhibitory activity (EC50). In a few lines:
as §1

T4 sequence (P52333 822-1111 limits assumed): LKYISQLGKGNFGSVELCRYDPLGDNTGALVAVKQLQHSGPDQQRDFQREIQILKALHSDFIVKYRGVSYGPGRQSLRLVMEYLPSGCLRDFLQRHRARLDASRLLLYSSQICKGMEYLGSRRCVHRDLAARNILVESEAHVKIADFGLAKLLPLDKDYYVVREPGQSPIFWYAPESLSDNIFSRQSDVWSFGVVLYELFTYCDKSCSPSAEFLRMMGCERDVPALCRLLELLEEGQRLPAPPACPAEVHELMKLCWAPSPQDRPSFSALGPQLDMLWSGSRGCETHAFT

Turning to `CCC1=NOC(C(=O)N2CCCN(c3ncnc4[nH]ccc34)CC23CC3)C1` (racemic) [Example 123, (3-ethyl-4,5-dihydroisoxazol-5-yl)-[5-(7H-pyrrolo[2,3-d]pyrimidin-4-yl)-5,9-diazaspiro[2.6]nonan-9-yl]methanone], the EC50 at TYK2 is more than 1000 nM; on JAK1, 100 to 1000 nM; on JAK2, 100 to 1000 nM; on JAK3 it was 100 to 1000 nM.
On to `N#CCCC(=O)N1CCN(c2ncnc3[nH]ccc23)CC2(CC2)C1` [Example 1, 4-Oxo-4-[8-(7H-pyrrolo[2,3-d]pyrimidin-4-yl)-5,8-diazaspiro[2.6]non-5-yl]butyronitrile], for which the EC50 is 100 to 1000 nM at TYK2, less than 100 nM on JAK1, less than 100 nM at JAK2 and 100 to 1000 nM on JAK3.
In the case of `COc1cccc(C(=O)N2CCN(c3ncnc4[nH]ccc34)CC3(CC3)C2)c1OC` [Example 2, (2,3-Dimethoxyphenyl)-[8-(7H-pyrrolo[2,3-d]pyrimidin-4-yl)5,8-diazaspiro[2.6]non-5-yl]methanone], the EC50 on TYK2, on JAK1, at JAK2 and on JAK3 was more than 1000 nM each time.
For the molecule `N#Cc1cccc(C(=O)N2CCN(c3ncnc4[nH]ccc34)CC3(CC3)C2)c1` [Example 3, 3-[8-(7H-pyrrolo[2,3-d]pyrimidin-4-yl)-5,8-diazaspiro[2.6]nonane-5-carbonyl]benzonitrile], the EC50 is more than 1000 nM on TYK2, 100 to 1000 nM on JAK1, 100 to 1000 nM at JAK2 and more than 1000 nM on JAK3.
`COc1ncccc1C(=O)N1CCN(c2ncnc3[nH]ccc23)CC2(CC2)C1` [Example 4, (2-Methoxypyridin-3-yl)-[8-(7H-pyrrolo[2,3-d]pyrimidin-4-yl)-5,8-diazaspiro[2.6]non-5-yl]methanone]: the EC50 on TYK2, on JAK1, at JAK2 and on JAK3 was more than 1000 nM each time.
For the molecule `N#CCC(=O)N1CCN(c2ncnc3[nH]ccc23)CC2(CC2)C1` [Example 5, 3-oxo-3-[8-(7H-pyrrolo[2,3-d]pyrimidin-4-yl)-5,8-diazaspiro[2.6]non-5-yl]propionitrile], the EC50 is 100 to 1000 nM at TYK2, less than 100 nM at JAK1, less than 100 nM at JAK2 and less than 100 nM on JAK3.
As for `CC(=O)N1CCC(C(=O)N2CCN(c3ncnc4[nH]ccc34)CC3(CC3)C2)CC1` [Example 6, 1-{4-[8-(7H-pyrrolo[2,3-d]pyrimidin-4-yl)-5,8-diazaspiro[2.6]nonane-5-carbonyl]piperidin-1-yl}ethanone], the EC50 on TYK2 is more than 1000 nM; on JAK1, 100 to 1000 nM; at JAK2, 100 to 1000 nM; at JAK3, more than 1000 nM.
For the molecule `N#Cc1ccccc1C(=O)N1CCN(c2ncnc3[nH]ccc23)CC2(CC2)C1` [Example 7, 2-[8-(7H-pyrrolo[2,3-d]pyrimidin-4-yl)-5,8-diazaspiro[2.6]nonane-5-carbonyl]benzonitrile], the EC50 on TYK2 is more than 1000 nM; at JAK1, more than 1000 nM; at JAK2, 100 to 1000 nM; on JAK3, more than 1000 nM.
With `N#Cc1ccc2[nH]c(C(=O)N3CCN(c4ncnc5[nH]ccc45)CC4(CC4)C3)cc2c1` [Example 8, 2-[8-(7H-pyrrolo[2,3-d]pyrimidin-4-yl)-5,8-diazaspiro[2.6]nonane-5-carbonyl]-1H-indole-5-carbonitrile], the EC50 on TYK2 is more than 1000 nM; on JAK1, less than 100 nM; on JAK2 it was 100 to 1000 nM; at JAK3, 100 to 1000 nM.
With `N#Cc1cccc(CC(=O)N2CCN(c3ncnc4[nH]ccc34)CC3(CC3)C2)c1` [Example 9, 3-{2-oxo-2-[8-(7H-pyrrolo[2,3-d]pyrimidin-4-yl)-5,8-diazaspiro[2.6]non-5-yl]ethyl}benzonitrile], the EC50 on TYK2 was more than 1000 nM; on JAK1 it was 100 to 1000 nM; at JAK2, less than 100 nM; on JAK3, 100 to 1000 nM.
Regarding `N#Cc1ccc(CC(=O)N2CCN(c3ncnc4[nH]ccc34)CC3(CC3)C2)cc1` [Example 10, 4-{2-oxo-2-[8-(7H-pyrrolo[2,3-d]pyrimidin-4-yl)-5,8-diazaspiro[2.6]non-5-yl]ethyl}benzonitrile], the EC50 was 100 to 1000 nM at TYK2, less than 100 nM at JAK1, less than 100 nM at JAK2 and less than 100 nM on JAK3.
Turning to `CC(C)(C#N)C(=O)N1CCN(c2ncnc3[nH]ccc23)CC2(CC2)C1` [Example 11, 2,2-Dimethyl-3-oxo-3-[8-(7H-pyrrolo[2,3-d]pyrimidin-4-yl)-5,8-diazaspiro[2.6]non-5-yl]propionitrile], the EC50 on TYK2 was more than 1000 nM; on JAK1 it was more than 1000 nM; on JAK2, 100 to 1000 nM; at JAK3, 100 to 1000 nM.
For `N#CCc1ccc(C(=O)N2CCN(c3ncnc4[nH]ccc34)CC3(CC3)C2)cc1` [Example 12, {4-[8-(7H-pyrrolo[2,3-d]pyrimidin-4-yl)-5,8-diazaspiro[2.6]nonane-5-carbonyl]phenyl}acetonitrile], the EC50 was more than 1000 nM at TYK2, 100 to 1000 nM on JAK1, 100 to 1000 nM on JAK2 and more than 1000 nM at JAK3.
As for `N#Cc1ccc(C(F)(F)C(=O)N2CCN(c3ncnc4[nH]ccc34)CC3(CC3)C2)cc1` [Example 13, 4-[1,1-difluoro-2-oxo-2-[5-(7H-pyrrolo[2,3-d]pyrimidin-4-yl)-5,8-diazaspiro[2.6]nonan-8-yl]ethyl]benzonitrile], the EC50 on TYK2 is more than 1000 nM; on JAK1, 100 to 1000 nM; on JAK2, less than 100 nM; on JAK3, more than 1000 nM.
For `N#CCOc1cccc(C(=O)N2CCN(c3ncnc4[nH]ccc34)CC3(CC3)C2)c1` [Example 14, 2-[3-[5-(7H-pyrrolo[2,3-d]pyrimidin-4-yl)-5,8-diazaspiro[2.6]nonane-8-carbonyl]phenoxy]acetonitrile], the EC50 at TYK2 was more than 1000 nM; on JAK1, 100 to 1000 nM; on JAK2, 100 to 1000 nM; at JAK3, more than 1000 nM.
`N#CCOc1ccc(C(=O)N2CCN(c3ncnc4[nH]ccc34)CC3(CC3)C2)cc1` [Example 15, 2-[4-[5-(7H-pyrrolo[2,3-d]pyrimidin-4-yl)-5,8-diazaspiro[2.6]nonane-8-carbonyl]phenoxy]acetonitrile]: the EC50 is more than 1000 nM at TYK2, 100 to 1000 nM at JAK1, 100 to 1000 nM on JAK2 and 100 to 1000 nM on JAK3.
On to `N#CCOc1ccc(CC(=O)N2CCN(c3ncnc4[nH]ccc34)CC3(CC3)C2)cc1` [Example 16, 2-[4-[2-oxo-2-[5-(7H-pyrrolo[2,3-d]pyrimidin-4-yl)-5,8-diazaspiro[2.6]nonan-8-yl]ethyl]phenoxy]acetonitrile], for which the EC50 at TYK2 is more than 1000 nM; on JAK1, less than 100 nM; at JAK2 it was less than 100 nM; on JAK3 it was 100 to 1000 nM.

Usually EC50 stands for the concentration that produces a half-maximal response.

(Values after US9586961B2, “Homopiperazine derivatives as protein tyrosine kinase inhibitors and pharmaceutical use thereof” (LEO PHARMA A/S, priority 2010, dated 2017).)
